Data from patent US8530648B2, “Diaza-spiro[5.5]undecanes” (Novartis AG, priority 2009, dated 2013).

Tests used:
hOx1R [1] = molecular target: T1, hOx1R (Homo sapiens (Human), UniProt O43613); assay: Calcium accumulation in cells (FLIPR), hOx1R; assay type: cell-based; details: for Ki: inhibition of orexin A induced calcium accumulation, Cheng and Prusoff correction; for inhibition at 10 µM: measured at a concentration of 10 μM of compound
How it was run: (§1)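 Cells expressing human orexin 1 or 2 receptor, serum-deprived overnight, loaded with Fluo-4-AM (2 μM) plus 0.1 mM probenecid, pH 7.4 HEPES buffer with 1% BSA.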

hOx2R [2] = molecular target: T2, hOx2R (Homo sapiens (Human), UniProt O43614); assay: Calcium accumulation in cells (FLIPR), hOx2R; assay type: cell-based; details: for Ki: inhibition of orexin A induced calcium accumulation, Cheng and Prusoff correction; for inhibition at 10 µM: measured at a concentration of 10 μM of compound
How it was run: as §1

hOx1R [3] = molecular target: T1, hOx1R; assay: Radioligand binding assay, [3H]-SB649868, hOx1R; details: radioligand [3H]-SB649868, competition
Method: (§2) For crude cell membrane preparations, cells (CHO, Chinese hamster ovary or HEK, human embryonic kidney) expressing human orexin 1 or human orexin 2 receptors, were washed with HEPES (10 mM, pH 7.5), scraped off the culture plates with the same buffer, and centrifuged at 4° C. for 5 min at 2500×g. The cell pellet was either stored at −80° C. or used directly. Before the experiments, cell membranes were re-suspended in binding assay buffer (10 mM HEPES, 0.5% (w/v) bovine serum albumin, pH 7.5) by homogenisation with a Polytron homogeniser at 50 Hz for 20 s. Cell membranes were also used as made available by commercial providers.
(§3) Bound radioactivity was measured, and data were analysed with the program XLFIT or Graphpad Prism. Protein concentration was determined according to the Bradford/BioRad Protein Assay Kit.
(§4) In competition experiments, cell homogenates (150 μl) were incubated in assay buffer (10 mM HEPES, pH 7.5, 0.5% (w/v) bovine serum albumin, 5 mM MgCl2, 1 mM CaCl2, and tween 0.05%) for 1 h at room temperature with about 1 nM of the radioligand [^3H]-SB649868, 66 Ci/mmole, 50 μl), and with various concentrations of compounds of the invention (50 μl) in triplicates; non-specific binding was determined in the presence of almorexant (10 μM).

hOx2R [4] = molecular target: T2, hOx2R; assay: Radioligand binding assay, [3H]-SB649868, hOx2R; details: radioligand [3H]-SB649868, competition
Method: as §2, §3, §4

T1 sequence (O43613 whole entry): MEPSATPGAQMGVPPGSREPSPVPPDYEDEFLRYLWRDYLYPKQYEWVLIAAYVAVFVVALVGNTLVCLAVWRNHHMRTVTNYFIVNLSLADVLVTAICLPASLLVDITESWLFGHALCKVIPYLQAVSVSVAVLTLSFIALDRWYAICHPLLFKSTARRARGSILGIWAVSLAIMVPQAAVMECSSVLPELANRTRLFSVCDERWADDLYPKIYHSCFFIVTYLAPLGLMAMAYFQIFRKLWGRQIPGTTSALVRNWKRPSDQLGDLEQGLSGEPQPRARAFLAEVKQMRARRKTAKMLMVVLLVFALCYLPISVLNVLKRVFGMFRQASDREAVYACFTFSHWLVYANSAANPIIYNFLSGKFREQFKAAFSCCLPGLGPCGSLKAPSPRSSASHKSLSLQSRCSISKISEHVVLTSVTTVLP
T2 sequence (O43614 whole entry): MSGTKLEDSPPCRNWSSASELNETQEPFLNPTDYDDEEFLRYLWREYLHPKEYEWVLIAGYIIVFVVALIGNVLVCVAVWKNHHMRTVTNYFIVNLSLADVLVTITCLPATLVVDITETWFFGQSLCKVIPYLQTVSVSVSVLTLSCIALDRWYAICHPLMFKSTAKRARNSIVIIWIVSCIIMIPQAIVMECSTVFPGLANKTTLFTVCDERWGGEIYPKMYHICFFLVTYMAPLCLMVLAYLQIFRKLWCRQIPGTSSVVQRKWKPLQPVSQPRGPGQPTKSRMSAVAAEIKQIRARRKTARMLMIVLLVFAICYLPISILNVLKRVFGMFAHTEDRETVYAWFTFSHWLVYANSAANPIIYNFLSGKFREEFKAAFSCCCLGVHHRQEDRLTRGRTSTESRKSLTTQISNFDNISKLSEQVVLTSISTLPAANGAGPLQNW

SMILES	Ki (hOx1R [1])	Ki (hOx2R [2])	inhibition at 10 µM (hOx1R [1])	also measured
COc1cc(CN2CCCC3(CCN(c4cnc5ccccc5n4)CC3)C2=O)ccn1 [Example 45, 2-((2-methoxypyridin-4-yl)methyl)-9-(quinoxalin-2-yl)-2,9-diazaspiro[5.5]undecan-1-one]	–	–	19%	inhibition at 10 µM (hOx2R [2]): 43%
Cc1nnc(N2CCC3(CCCN(Cc4c[nH]c5ccccc45)C3=O)CC2)c2ccccc12 [Example 157, 2-((1H-indol-3-yl)methyl)-9-(4-methylphthalazin-1-yl)-2,9-diazaspiro[5.5]undecan-1-one]	1700 nM	320 nM	–	–
O=C1N(Cc2ccc3[nH]ccc3c2)CCCC12CCN(c1cnc3ccccc3n1)CC2 [Example 123, 2-((1H-indol-5-yl)methyl)-9-(quinoxalin-2-yl)-2,9-diazaspiro[5.5]undecan-1-one]	–	–	11%	inhibition at 10 µM (hOx2R [2]): 24%
O=C1CCCC2(CCN(c3cnc4ccccc4n3)CC2)N1Cc1c[nH]c2ncccc12 [Example 141, 1-((1H-pyrrolo[2,3-b]pyridin-3-yl)methyl)-9-(quinoxalin-2-yl)-1,9-diazaspiro[5.5]undecan-2-one]	1980 nM	404 nM	–	–
O=C1N(Cc2c[nH]c3ccccc23)CCCC12CCN(c1ccc(-c3nccs3)cn1)CC2 [Example 161, 2-((1H-indol-3-yl)methyl)-9-(5-(thiazol-2-yl)pyridin-2-yl)-2,9-diazaspiro[5.5]undecan-1-one]	–	713 nM	40%	–
COc1ccc(-c2nnc(CN3CCCC4(CCN(c5cnc6ccccc6n5)CC4)C3=O)o2)cc1 [Example 31, 2-((5-(4-methoxyphenyl)-1,3,4-oxadiazol-2-yl)methyl)-9-(quinoxalin-2-yl)-2,9-diazaspiro[5.5]undecan-1-one]	3690 nM	1180 nM	–	–
COc1cccc(CN2CCCC3(CCN(c4cnc5ccccc5n4)CC3)C2=O)c1OC [Example 18, 2-(2,3-dimethoxybenzyl)-9-(quinoxalin-2-yl)-2,9-diazaspiro[5.5]undecan-1-one]	–	782 nM	3%	–
O=C1N(Cc2ccccc2-c2ncccn2)CCCC12CCN(c1cnc3ccccc3n1)CC2 [Example 151, 2-(2-(pyrimidin-2-yl)benzyl)-9-(quinoxalin-2-yl)-2,9-diazaspiro[5.5]undecan-1-one]	–	675 nM	14%	–
O=C1N(Cc2ccnc(N3CCOCC3)c2)CCCC12CCN(c1cnc3ccccc3n1)CC2 [Example 56, 2-((2-morpholinopyridin-4-yl)methyl)-9-(quinoxalin-2-yl)-2,9-diazaspiro[5.5]undecan-1-one]	2040 nM	483 nM	–	–
O=C1N(Cc2cccc(N3CCCC3)n2)CCCC12CCN(c1cnc3ccccc3n1)CC2 [Example 103, 2-((6-(pyrrolidln-1-yl)pyridin-2-yl)methyl)-9-(quinoxalin-2-yl)-2,9-diazaspiro[5.5]undecan-1-one]	2490 nM	1190 nM	–	–
Cn1cc(-c2ccccc2CN2CCCC3(CCN(c4cnc5ccccc5n4)CC3)C2=O)cn1 [Example 51, 2-(2-(1-methyl-1H-pyrazol-4-yl)benzyl)-9-(quinoxalin-2-yl)-2,9-diazaspiro[5.5]undecan-1-one]	–	–	57%	inhibition at 10 µM (hOx2R [2]): 32%
Cn1c(CN2CCCC3(CCN(c4cnc5ccccc5n4)CC3)C2=O)nc2ccccc21 [Example 30, 2-((1-methyl-1H-benzo[d]imidazol-2-yl)methyl)-9-(quinoxalin-2-yl)-2,9-diazaspiro[5.5]undecan-1-one]	–	–	17%	inhibition at 10 µM (hOx2R [2]): 33%
O=C1N(Cc2noc(C3CCC3)n2)CCCC12CCN(c1cnc3ccccc3n1)CC2 [Example 89, 2-((5-cyclobutyl-1,2,4-oxadiazol-3-yl)methyl)-9-(quinoxalin-2-yl)-2,9-diazaspiro[5.5]undecan-1-one]	–	–	29%	inhibition at 10 µM (hOx2R [2]): 24%
N#Cc1ccc(CN2CCCC3(CCN(c4cnc5ccccc5n4)CC3)C2=O)cn1 [Example 100, 5-((1-oxo-9-(quinoxalin-2-yl)-2,9-diazaspiro[5.5]undecan-2-yl)methyl)picolinonitrile]	–	–	29%	inhibition at 10 µM (hOx2R [2]): 13%
Cc1ccccc1CN1CCCC2(CCN(c3cnc4ccccc4n3)CC2)C1=O [Example 19, 2-(2-methylbenzyl)-9-(quinoxalin-2-yl)-2,9-diazaspiro[5.5]undecan-1-one]	–	495 nM	12%	–
Cc1oc(-c2cscn2)nc1CN1CCCC2(CCN(c3cnc4ccccc4n3)CC2)C1=O [Example 114, 2-((5-methyl-2-(thiazol-4-yl)oxazol-4-yl)methyl)-9-(quinoxalin-2-yl)-2,9-diazaspiro[5.5]undecan-1-one]	3790 nM	831 nM	–	–
O=C1N(Cc2ccc(-n3cncn3)cc2)CCCC12CCN(c1cnc3ccccc3n1)CC2 [Example 81, 2-(4-(1H-1,2,4-triazol-1-yl)benzyl)-9-(quinoxalin-2-yl)-2,9-diazaspiro[5.5]undecan-1-one]	–	1580 nM	13%	–
O=C1N(Cc2ccc3nonc3c2)CCCC12CCN(c1cnc3ccccc3n1)CC2 [Example 53, 2-(benzo[c][1,2,5]oxadiazol-5-ylmethyl)-9-(quinoxalin-2-yl)-2,9-diazaspiro[5.5]undecan-1-one]	–	–	37%	inhibition at 10 µM (hOx2R [2]): 24%
O=C1N(Cc2cccc(-n3cccc3)c2)CCCC12CCN(c1cnc3ccccc3n1)CC2 [Example 35, 2-(3-(1H-pyrrol-1-yl)benzyl)-9-(quinoxalin-2-yl)-2,9-diazaspiro[5.5]undecan-1-one]	–	272 nM	26%	–
O=C1N(Cc2cccc3c2OCCN3)CCCC12CCN(c1cnc3ccccc3n1)CC2 [Example 132, 2-((3,4-dihydro-2H-benzo[b][1,4]oxazin-8-yl)methyl)-9-(quinoxalin-2-yl)-2,9-diazaspiro[5.5]undecan-1-one]	3180 nM	555 nM	–	–
N#Cc1cc(CN2CCCC3(CCN(c4cnc5ccccc5n4)CC3)C2=O)ccc1F [Example 94, 2-fluoro-5-((1-oxo-9-(quinoxalin-2-yl)-2,9-diazaspiro[5.5]undecan-2-yl)methyl)benzonitrile]	1700 nM	282 nM	–	–
O=C1N(Cc2cc(=O)[nH]c3ccccc23)CCCC12CCN(c1cnc3ccccc3n1)CC2 [Example 96, 4-((1-oxo-9-(quinoxalin-2-yl)-2,9-diazaspiro[5.5]undecan-2-yl)methyl)quinolin-2(1H)-one]	2400 nM	631 nM	–	–

More lines, in order of falling Ki (hOx2R [2]), values ahead:

Ki (hOx1R [1])	Ki (hOx2R [2])	inhibition at 10 µM (hOx1R [1])	SMILES	also measured
1250 nM	267 nM	–	O=C1N(Cc2cccc3c2CCN3)CCCC12CCN(c1cnc3ccccc3n1)CC2 [Example 126, 2-(indolin-4-ylmethyl)-9-(quinoxalin-2-yl)-2,9-diazaspiro[5.5]undecan-1-one]	–
1720 nM	247 nM	–	Cc1cccc(CN2CCCC3(CCN(c4cnc5ccccc5n4)CC3)C2=O)c1C [Example 17, 2-(2,3-dimethylbenzyl)-9-(quinoxalin-2-yl)-2,9-diazaspiro[5.5]undecan-1-one]	–
2150 nM	232 nM	–	O=C1N(Cc2cnn3ccccc23)CCCC12CCN(c1cnc3ccccc3n1)CC2 [Example 79, 2-(pyrazolo[1,5-a]pyridin-3-ylmethyl)-9-(quinoxalin-2-yl)-2,9-diazaspiro[5.5]undecan-1-one]	–
–	160 nM	33%	O=C1N(Cc2cccc(Cl)c2)CCCC12CCN(c1nc3ccccc3[nH]1)CC2 [Example 28, 9-(1H-benzo[d]imidazol-2-yl)-2-(3-chlorobenzyl)-2,9-diazaspiro[5.5]undecan-1-one]	–
1160 nM	156 nM	–	O=C1N(Cc2c[nH]c3ccccc23)CCCC12CCN(c1nccc(-c3ccncc3)n1)CC2 [Example 166, 2-((1H-indol-3-yl)methyl)-9-(4-(pyridin-4-yl)pyrimidin-2-yl)-2,9-diazaspiro[5.5]undecan-1-one]	–
646 nM	115 nM	–	O=C1N(Cc2c[nH]c3ccccc23)CCCC12CCN(c1nccc(-c3ccccc3)n1)CC2 [Example 154, 2-((1H-indol-3-yl)methyl)-9-(4-phenylpyrimidin-2-yl)-2,9-diazaspiro[5.5]undecan-1-one]	–
–	106 nM	–	Cc1noc(-c2cccc(CN3CCCC4(CCN(c5cnc6ccccc6n5)CC4)C3=O)c2)n1 [Example 104, 2-(3-(3-methyl-1,2,4-oxadiazol-5-yl)benzyl)-9-(quinoxalin-2-yl)-2,9-diazaspiro[5.5]undecan-1-one]	Kd (hOx2R [4]): 1370 nM
2990 nM	96 nM	–	COCc1cccc(CN2CCCC3(CCN(c4cnc5ccccc5n4)CC3)C2=O)c1 [Example 80, 2-(3-(methoxymethyl)benzyl)-9-(quinoxalin-2-yl)-2,9-diazaspiro[5.5]undecan-1-one]	–
1040 nM	32 nM	–	O=C1N(Cc2c[nH]c3ccccc23)CCCC12CCN(c1cnc3ccccc3c1)CC2 [Example 48, 2-((1H-indol-3-yl)methyl)-9-(quinolin-3-yl)-2,9-diazaspiro[5.5]undecan-1-one]	Kd (hOx1R [3]): 1840 nM; Kd (hOx2R [4]): 147 nM
